In one experiment the test system is Male Laca mice. In words: Porsolt Forced Swim test (behavioural despair test). It counts as in vivo. As for the experimental part: Method: Porsolt Forced Swim test (also called behavioural despair test)
Animals are subjected to two trials during which they are force to swim in an acrylic glass cylinder filled with water and from which they cannot escape. The first trial lasts 15 minutes. Then, after 24-hours, a second trial is performed which lasts 5 minutes. The time that the animal spends without moving in the second trial is measured. This immobility time is decreased by antidepressants.
After some time, the mice give up the attempt to escape from the water and subside into immobility. The duration of the immobility is measured. An animal was considered to be immobile whenever it remained floating passively in the water in a slightly hunched but upright position, its nose above the water surface. […] The total immobility period during the 6-min test was recorded with the help of stopwatch.
The immobility period data obtained from tables 1, 2 and 3 is plotted against the dose administered in FIG. 1, FIG. 2 and FIG. 3 respectively, as shown in the drawing accompanying this specification.
Test Procedures: Porsolt Forced Swim test. Rectangular glass jar (25×12×25 cm^3) containing 15 cm of water maintained at 24±1° C.
The immobility period data obtained from Tables 4, 5, 6 and 7 is plotted against the dose administered in FIG. 4, FIG. 5, FIG. 6 and FIG. 7 respectively, as shown in the drawing accompanying this specification.

Another experiment has as its system Norepinephrine. Nature of the experiment: Biological amine levels by HPLC-ECD after 45 min: norepinephrine. The settings on record: fluoxetine 10 mg/kg. Type of experiment: in vivo, mice. The method, then:
(§1) Test Substances: […] Animals: Male Laca mice. Test Procedures: Animals were sacrificed after 45 min of drug administration similar to the time period of behavioral observations. HPLC-ECD detector: Mobile phase—Phosphate buffer: […] • Column—ODS-3 C-18 column (250×4.6 mm I.D.; 5 μm particle size)

In the next experiment the test system is Dopamine. In words: Biological amine levels by HPLC-ECD after 45 min: dopamine. Type of experiment: in vivo, mice. The settings on record: fluoxetine 10 mg/kg. The method, then: as §1
For another experiment, the system named is 5-hydroxytryptamine. In words: Biological amine levels by HPLC-ECD after 45 min: 5-hydroxytryptamine. It counts as in vivo, mice. The settings on record: fluoxetine 10 mg/kg. As for the experimental part: as §1
The mark [1] stands for this setting: Table 5, venlafaxine alone 2 mg/kg ip.
Where [2] appears, read: Table 6, desipramine alone 5 mg/kg ip.
Where [3] appears, read: Table 7, tranylcypromine alone 5 mg/kg ip.
The mark [4] stands for this setting: Table 4, fluoxetine alone 5 mg/kg ip.

Each structure is given as a SMILES string.

For the compound `COc1ccc(C(CN(C)C)C2(O)CCCCC2)cc1` (centres unmarked) [Venlafaxine], in the experiment with Male Laca mice (setting [1]), the “% Decrease in immobility w.r.t vehicle group” value is on record as 8.69% and the “Immobility period” value came out at 193.8 ± 13.26 s.
For `CNCCCN1c2ccccc2CCc2ccccc21` [Desipramine], in the experiment with Male Laca mice (setting [2]), the “% Decrease in immobility w.r.t vehicle group” value turned out to be 17.46% and the “Immobility period” value stood at 211.5 ± 21.97 s.
`N[C@@H]1C[C@H]1c1ccccc1` (racemic) [Tranylcypromine]: in the experiment with Male Laca mice (setting [3]), the “% Decrease in immobility w.r.t vehicle group” value was found to be 15.15% and the “Immobility period” value amounted to 234 ± 20.41 s.
Regarding `CNCCC(Oc1ccc(C(F)(F)F)cc1)c1ccccc1` (centres unmarked) [Fluoxetine], the “% Decrease in immobility w.r.t saline treated group” value was determined as 74.30% in the experiment on Male Laca mice (Table 1, fluoxetine 10 mg/kg); 70.51% in the experiment on Male Laca mice (Table 2, fluoxetine 10 mg/kg); 70.51% with Male Laca mice (Table 3, fluoxetine 10 mg/kg). In addition, the “Immobility period” value with Male Laca mice (Table 1, fluoxetine 10 mg/kg) came out at 57 ± 17.45 s; in the experiment on Male Laca mice (Table 2, fluoxetine 10 mg/kg), 57 ± 17.45 s; in the experiment on Male Laca mice (Table 3, fluoxetine 10 mg/kg), 57 ± 17.45 s; in the experiment on Male Laca mice (setting [4]), 172.75 ± 10.4 s. Moreover, the “% Decrease in immobility w.r.t saline group” value in the experiment with Male Laca mice (setting [4]) is given as 12.30%. Moreover, the “Norepinephrine % increase w.r.t Control” value in the experiment with Norepinephrine stood at 40.87%. Moreover, the “Norepinephrine (ng/mg tissue)” value with Norepinephrine (n = 5) is given as 4.17 ± 0.23a ng/mg tissue. Further, the “Dopamine % increase w.r.t Control” value in the experiment with Dopamine is reported as 12.15%. For the same compound, the “Dopamine (ng/mg tissue)” value in the experiment with Dopamine (n = 5) is listed as 6.09 ± 0.54 ng/mg tissue. Further, in the experiment on 5-hydroxytryptamine, the “5-hydroxytryptamine % increase w.r.t Control” value was determined as 36.52%. In addition, the “5-hydroxytryptamine (ng/mg tissue)” value in the experiment on 5-hydroxytryptamine (n = 5) worked out at 5.42 ± 0.13 ng/mg tissue.

For the origin of these results see patent US9259401B2 (priority 2011, dated 2016).
